Test results published in patent US12435380B2, “Compositions and methods for the diagnosis and treatment of ALT cancer” (Texas Tech University System, priority 2018, dated 2025).
Entries after “also recorded” stand apart in the source; their conditions may differ.

What was measured:
[1] = test system: ALT rhabdomyosarcoma cell lines; assay: DIMSCAN cytotoxicity, rhabdomyosarcoma cell lines; type: cell-based, human; details: 5% O2
Description: FIGS. 8A and 8B are graphs of survival fraction versus PRIMA-1MET concentration and illustrate Cytotoxicity of PRIMA-1MET in ALT vs TERT+ Rhabdomyosarcoma. FIG. 8A illustrates ALT+ rhabdomyosarcoma grown in 5% O2 and FIG. 8B illustrates TERT+ rhabdomyosarcoma grown in 5% O2. Cytotoxicity of PRIMA-1MET was assessed for ALT and non-ALT (TERT+) rhabdomyosarcoma cell lines using DIMSCAN.

[2] = test system: ALT lymphoma cell lines TX-LY-064hnb, TX-LY-245h, COG-LY-357h; assay: DIMSCAN cytotoxicity, lymphoma cell lines; type: cell-based, human; details: vs TERT+ lines SUP-TI and COG-LY-459, 5% O2, p53 dysfunction
Description: FIGS. 9A and 9B are graphs of survival fraction versus PRIMA-1MET concentration for ALT+p53 non-functional lymphoma 5% O2 and TERT+p53 non-functional lymphoma 5% O2, respectively. […] All lines had some form of p53 dysfunction.

TERT+ cell lines = assay: PRIMA-1MET IC50 with ATM or ATR kinase inhibitor, TERT+ lines; type: cell-based, human; details: with ATM kinase inhibitor (ATMi) or ATR kinase inhibitor (ATRi)
Description: (§1) FIGS. 21A and 21B illustrate effect of inhibition of ATM or ATR kinase on sensitivity of ALT+vs TERT+(ALT-negative) using ATM kinase inhibitor (ATMi) or ATR kinase inhibitor (ATRi) ir ALT+ and TERT+ cell lines;
(§2) FIGS. 21A and 21B illustrate inhibition of kinase inhibitors for ALT+ and TERT+ cell lines Kinase Inhibitors antagonize PRIMA-1MET in ALT+ cell lines.

[3] = test system: ALT+ neuroblastoma xenografts CHLA-90m and COG-N-669x; assay: ALT neuroblastoma xenografts, tumor volume; parameters: species or system athymic nude mice; details: mouse, in vivo
Description: FIGS. 22A and 22B are graphs tumor volume versus time for CHLA-90m and COG-N-669x. The neuroblastoma cell lines CHLA-90m and COG-N-669x were injected into athymic nude mice and drugged with PRIMA-1Met and BSO.

[4] = test system: ALT neuroblastoma cell line CHLA-90; assay: PRIMA-1MET sensitivity after shRNA knockdown of ATM; type: cell-based, human
Description: FIGS. 20A and 20B illustrate data for cell line CHLA-90. shRNA knockdown of ATM in the ALT neuroblastoma cell line CHLA-90 led to hyper-resistance to PRIMA-1MET. We hypothesize this is due to the loss of constitutive activation of ATM in ALT positive cell lines which would trigger senescence and apoptosis once PRIMA-1MET refolds mutant p53 in the presence of ATM.

[5] = test system: ALT cell lines from various histologies; assay: Summary of cytotoxicity (IC50/IC90), ALT vs non-ALT cell lines of all histologies; type: cell-based, human
Description: […] are graphs of PRIMA-1MET cytotoxicity of ALT vs non-ALT cell lines and illustrate PRIMA-1MET IC50/IC90 for all tested cancers. FIG. 8A illustrates IC50 20% O2, and FIG. 8B illustrates IC90 20% O2. IC50 5% O2, and IC90 5% O2 were also observed. Cytotoxicity data on all ALT cell lines from various histologies were compared with non-ALT cell lines of the same histologies, presented as inhibitory+cytotoxic concentrations for 50% (IC50) and 90% (IC90) of the cells.
FIGS. 11A and 11B are graphs showing cytotoxicity of ALT and non-ALT cell lines for IC50 and IC90. Cytotoxicity data on all ALT cell lines from various histologies compared with non-ALT cell lines of the same histologies. The data is presented as inhibitory+cytotoxic concentrations for 50% (IC50) and 90% (IC90) of the cells.

[6] = test system: ALT+ p53 non-functional adult cell lines; assay: Cytotoxicity, ALT+ adult cell lines; type: cell-based, human; details: 5% O2
Description: FIG. 10 is a graph of survival fraction versus PRIMA-1MET concentration for ALT+ adult cell lines showing the high activity of PRIMA1MET against ALT breast cancer, colorectal cancer, ovarian cancer, lung cancer, and leiomyosarcoma cell lines;
FIG. 10 is a graph of survival fraction versus PRIMA-1MET concentration for ALT+p53 non-functional adult cell lines 5% O2. All lines had some form of p53 dysfunction.

[7] = test system: ALT+ neuroblastoma cell lines; assay: DIMSCAN cytotoxicity, neuroblastoma cell lines; type: cell-based, human
Description: FIG. 6 is a graph of survival fraction versus PRIMA-1MET concentration and illustrates high cytotoxicity of PRIMA-1MET in ALT+ versus TERT+(ALT negative) NB cell lines. FIG. 6 illustrates NB 5% O2. PRIMA-1MET dose response curves were analyzed using the DIMSCAN cytotoxicity assay system in 4 ALT+ neuroblastoma cell lines compared to 3 non-ALT, but TP53-mut cell lines.
FIGS. 7A and 7B are graphs of survival fraction versus PRIMA-1MET concentration and illustrate cytotoxicity of PRIMA-1MET in ALT+NB cell lines as enhanced by hypoxia. PRIMA-1MET cytotoxicity was assessed for 3 ALT neuroblastoma cell lines in ambient air culture conditions (20% O2) compared with bone marrow level hypoxia (5% O2).

ALT+ cell lines = assay: PRIMA-1MET IC50 with ATM or ATR kinase inhibitor, ALT+ lines; type: cell-based, human; details: with ATM kinase inhibitor (ATMi) or ATR kinase inhibitor (ATRi)
Description: as §1, §2

p21 and NOXA = assay: Immunoblots of apoptotic proteins after PRIMA-1MET; type: cell-based, human; details: TP53-mutated, 20 uM, 6, 12 and 24 hours
Description: FIGS. 5A and 5B are quantitative representations of immunoblots of apoptotic proteins with three ALT+ cell lines and two TERT+ lines. All cell lines were treated with 20 uM of PRIMA-1MET for 6, 12 and 24 hours. All cell lines were known to have TP53-inactivating mutations. […] We hypothesize this is due to the constitutive activation of ATM in ALT positive cell lines, which will trigger senescence and apoptosis once PRIMA-1MET refolds mutant TP53.

[8] = cited from earlier work
ALT cell lines = assay: PRIMA-1 activity in ALT cell lines from cancers other than neuroblastoma; type: cell-based, human; details: all ALT cell lines examined to date
[9] = test system: ALT neuroblastoma cell lines; assay: PRIMA-1 activity in neuroblastoma cell lines, ALT vs non-ALT; type: cell-based, human; details: ALT vs TP53-mutated non-ALT neuroblastoma cell lines
Description: Neuroblastoma provides a unique cancer for studying the role of changes that lead to inactivation of p53, such as TP53 inactivating mutations. This is because, unlike many other cancers, neuroblastomas at diagnosis and before therapy most frequently are p53 functional and there is a very low incidence of TP53 mutations. However, the incidence of p53 loss-of-function (often by TP53 mutation) increases in progressive disease after therapy. Because PRIMA-1 was developed as a drug that could restore p53 function to tumors with TP53 mutations, we assessed the activity of PRIMA-1 in neuroblastoma cell lines. Our panel of neuroblastoma cell lines includes p53-functional cell lines and those that have p53 loss-of-function and lines with TP53 mutations. The panel includes cell lines with TP53 mutations that are telomerase-positive (high TERT expression) and also TERT-low ALT (C-circle-positive) cell lines.
We have determined that the C-circle assay (specific for ALT cancers) identifies cancers that are especially responsive to PRIMA-1. While PRIMA-1 and APR-246 are being developed to treat TP53-mutated caners, only a subset of the latter respond to the drug as shown in preclinical studies and in the early phase I clinical trials. […]

COCC1(CO)C(=O)C2CCN1CC2 (stereo not drawn) [PRIMA-1MET]
sensitivity (survival fraction), ALT vs non-ALT rhabdomyosarcoma [1]: more sensitive
sensitivity (survival fraction), ALT vs TERT+ lymphoma [2]: more sensitive
change of IC50 with kinase inhibitors (TERT+ cell lines): little effect
tumor volume, single agent relative to control [3]: greater amount of activity
response to PRIMA-1MET after ATM knockdown [4]: hyper-resistance
sensitivity by IC50 and IC90, ALT vs non-ALT cell lines ([5]; all tested histologies): significantly more sensitive
ALT vs non-ALT difference in IC50/IC90 in hypoxia ([5]; bone marrow level hypoxia (5% O2) vs 20% O2): differences were greater
activity against ALT breast, colorectal, ovarian, lung cancer and leiomyosarcoma cell lines [6]: high activity
cytotoxicity in hypoxia vs ambient air ([7]; 3 ALT neuroblastoma cell lines, 5% O2 compared with 20% O2): even great cytotoxicity
sensitivity (survival fraction), ALT vs non-ALT neuroblastoma ([7]; 4 ALT+ vs 3 non-ALT TP53-mut cell lines, 5% O2): significantly more sensitive
change of IC50 with kinase inhibitors (ALT+ cell lines): greatly increases
NOXA expression (p21 and NOXA; three ALT+ cell lines): NOXA expression during longer treatment
p21 expression (p21 and NOXA; three ALT+ cell lines): substantial increase
NOXA expression (p21 and NOXA; two non-ALT (TERT+) cell lines): very little increase
p21 expression (p21 and NOXA; two non-ALT (TERT+) cell lines): very little increase
plasma levels ([8]; at the maximally tolerated dose, out to ~12 hours): > 10000 ng/mL
maximally tolerated dose ([8]; phase I, hematological malignancies and hormone-refractory prostate cancer): 60 μg/m^2
bone marrow toxicity ([8]; phase I): not observed
most common adverse events ([8]; phase I): dizziness, headache, confusion, and other neurological complications

O=C1C2CCN(CC2)C1(CO)CO [PRIMA-1]
sensitivity of ALT cell lines to PRIMA-1 (ALT cell lines): highly sensitive
activity of PRIMA-1 in ALT vs non-ALT neuroblastoma [9]: significantly greater in ALT neuroblastoma cell lines; also recorded: significantly higher in ALT neuroblastoma
